Ends that are not written are not given here.
Experiments:
[1] = test system: Rho; parameters: method as in 2 sources, one per row (each row's own in cited_ref): ref [23] = [23]; PMID 8466900; doi:10.1021/bi00065a007; 23 Zwiefka A. Kohn H. Widger W.R. Transcription termination factor rho: The site of Bicyclomycin inhibition in Escherichia coli Biochemistry 32 1993 3564 3570 8466900 10.1021/bi00065a007 ||| ref [24], [25], [26] = [24]; PMID 17565995; doi:10.1074/jbc.M702010200; 24 Gutiérrez P. Kozlov G. Gabrielli L. Elias D. Osborne M.J. Gallouzi I.E. Gehring K. Solution structure of YaeO, a rho-specific inhibitor of transcription termination J. Biol. Chem. 282 2007 23348 23 || [25]; PMID 21673658; doi:10.1038/emboj.2011.192; 25 Rabhi M. Espéli O. Schwartz A. Cayrol B. Rahmouni A.R. Arluison V. Boudvillain M. The Sm-like RNA chaperone Hfq mediates transcription antitermination at Rho-dependent terminators EMBO J. 30 2011 2 || [26]; PMID 31628950; doi:10.1016/j.jmb.2019.09.019; 26 Pal K. Yadav M. Jain S. Ghosh B. Sen R. Sen U. Vibrio cholerae YaeO is a structural homologue of RNA chaperone Hfq that inhibits rho-dependent transcription termination by dissociating its hexameri; conditions: cited from earlier work; for Rho antagonism (in words): ref [24], [25], [26]
[2] = test system: E. coli Rho; format: biochemical, Escherichia coli
[3] = test system: E. coli Rho; test: single round in vitro Rho-dependent transcription termination, T7A1-trpt′ template; format: biochemical, Escherichia coli
[4] = test system: E. coli Rho; test: Rho-mediated RNA release from stalled (roadblocked) elongation complex; format: biochemical, Escherichia coli; conditions: for inhibition of Rho-induced RNA release from stalled EC (in words): Fig. 3E; for inhibition of Rho-induced RNA release from stalled EC (in words) / Frac. of RNA released (%): Fig. S4B
[5] = target: P167L Rho (Escherichia coli, UniProt P0AG30, P167L); test: biochemical; format: binding
[6] = test system: E. coli MG1655; format: cell-based, Escherichia coli; conditions: MG1655, pNL150, IPTG induction (100 μM), LB, 37 °C, 6 h; three independent colonies
[7] = test system: Rho-dependent termination (trpt′ and trac terminators, lacZ reporter); format: cell-based, Escherichia coli; conditions: Fig. 3
[8] = test system: Rho-dependent termination (galEP3 reporter); test: in vivo Rho-dependent termination, galEP3 reporter, MacConkey-galactose plates; format: cell-based, Escherichia coli; conditions: MC4100 galEP3, MacConkey-galactose plates, overexpression
[9] = test system: Rho mutants, R144E, R146E, and E148R; format: cell-based, Escherichia coli; conditions: 0 and 100 μM IPTG
[10] = test system: Rho mutants, R66G and Y80C; format: cell-based, Escherichia coli; conditions: 50 μM IPTG
[11] = test system: E134K Rho mutant; format: cell-based, Escherichia coli; conditions: IPTG induction
[12] = target: WT Rho (Escherichia coli, UniProt P0AG30); format: biochemical
[13] = target: E134K Rho (Escherichia coli, UniProt P0AG30, E134K); format: biochemical; conditions: E134K Rho + peptide; λTR1 RNA; exponential decay fit; two to three measurements
[14] = test system: Rho proteins from pathogenic bacteria; format: biochemical; conditions: 35 μM peptide 33, 50 nM Rho, E. coli RNAP stalled EC, trpt′
[15] = test system: Mycobacterium smegmatis mc^2155; format: cell-based
[16] = test system: Mycobacterium bovis BCG; format: cell-based
[17] = test system: MG1655 gene expression; format: cell-based, Escherichia coli; conditions: qRT-PCR, relative to empty vector
[18] = CD spectrometry; format: physicochemical; conditions: 10 mM 2-(N-morpholino)ethanesulfonic acid pH 5.5, 190 to 270 nm, 25 °C
[19] = test system: isolated Rho–NTD monomer; test: interaction with isolated Rho-NTD monomer; format: binding, Escherichia coli; conditions: data not shown
[20] = pH 5.5
[21] = target: T1, P167L Rho (E. coli, UniProt P0AG30 1-419, P167L); test: pull-down; His-tagged peptides (30 μg peptide 16, 20 μg peptide 33) or His-tagged WT Psu (15 μg) bound to Ni-NTA beads at 4 °C for 12 to 16 h in 100 mM NaH2PO4 pH 8.0, 100 mM NaCl, 10 mM imidazole, 1 mM PMSF; 5 μg non-His-tagged P167L Rho added with 1 mM ATP, 37 °C, 20 min; wash 50 mM imidazole, elution 500 mM imidazole; SDS-Tricine PAGE; conditions: both partners purified
T1 construct: also called Rho P167L; non-His-tagged P167L Rho

[22] = ITC, 1 μM Rho P167L, 50 μM peptide, 1 mM ATP, pH 8.0, 25 °C, average of three experiments ± SD, Fig. 4B
[23] = Rho + NusG-CTD (5 μM) + ATP, average of three experiments ± SD, Fig. 6A
[24] = Rho + Poly dC34 (10 μM) + ATP, average of three experiments ± SD, Fig. 6A
[25] = Rho + PolyC (2 mM Poly(rC)), average of three experiments ± SD, Fig. 6A
[26] = Rho + ATP, average of three experiments ± SD, Fig. 6A
[27] = Rho bound to the single-stranded DNA and RNA

C=C1CCO[C@]2([C@@H](O)[C@@](C)(O)CO)NC(=O)[C@@]1(O)NC2=O [bicyclomycin]
Rho inhibition (in words) ([1]; ref [23]): directly binds near the ATP-binding sites and inhibits Rho functions

Hfq: PBS-binding Rho antagonist
Rho antagonism (in words) [1]: PBS-binding Rho antagonists

MHHHHHHTPAQFIFFRVKVRNWHTSVSVKAWLFWRMREDFQPDTD [peptide 33]
inhibition of ATPase activity of E. coli Rho (in words) [2]: more efficient than peptide 16 in inhibiting this Rho function | effect on transcription when Rho was absent (in words) ([3]; no Rho): did not have any effect on transcription when Rho was absent | inhibition of Rho-induced RNA release from stalled EC (in words) [4]: significantly inhibited | inhibition of Rho-induced RNA release from stalled EC (in words) ([4]; listed as Peptide 33): exerted its action at a lower concentration than peptide 16 | concentration for maximal effects ([4]; in general, varied between different lots): ≥ 50 µM | Frac. of RNA released (%) ([4]; peptide 25, Rho 50 nM): 31± 0.4% | Frac. of RNA released (%) ([4]; peptide 35, Rho 50 nM): 16 ± 0.4% | Frac. of RNA released (%) ([4]; peptide 50, Rho 50 nM): 13 ± 0.4% | Kd [5, 22]: 16.6 ± 3 nM | Kd ([5]; P167L Rho, ITC): 17 nM | Kd [5, 23]: 26.5 ± 0.3 nM | Kd [5, 24]: 255 ± 100 nM | Kd [5, 25]: 164 ± 48 nM | n [5, 26]: 3.75 ± 0.2 | ΔG [5, 26]: -11 ± 0.1 kcal/mol | ΔH [5, 26]: -28 ± 0.9 kcal/mol | ΔS [5, 26]: -57 ± 3 cal/mol.K | n [5, 23]: 3.1 ± 0.1 | ΔG [5, 23]: -10.3 ± 0.02 kcal/mol | ΔH [5, 23]: -26 ± 3 kcal/mol | ΔS [5, 23]: -52 ± 10 cal/mol.K | n [5, 24]: 1.9 ± 0.3 | ΔG [5, 24]: -9.1 ± 0.3 kcal/mol | ΔH [5, 24]: -23.7 ± 4 kcal/mol | ΔS [5, 24]: -49.00 ± 13 cal/mol.K | n [5, 25]: 2.9 ± 0.1 | ΔG [5, 25]: -9.3 ± 0.2 kcal/mol | ΔH [5, 25]: -27.1 ± 3.5 kcal/mol | ΔS [5, 25]: -59.6 ± 12.3 cal/mol.K | binding stoichiometry (in words) [5, 27]: also reduced | thermodynamic parameters (in words) [5, 27]: not changed significantly | affinity for Rho (in words) ([5]; in the presence of NusG CTD): not affected significantly | reduction of affinity for Rho ([5]; in the presence of polyC): 10 fold | reduction of affinity for Rho ([5]; in the presence of polydC34): 15 fold | growth defect upon expression (in words) [6]: severe growth defects | in vivo antitermination / Rho inhibitory properties (in words) [7]: strong in vivo antitermination of Rho-dependent termination | colour of colonies, galEP3 reporter (in words) [8]: appearance of red colonies | peptide-induced growth defect with Rho mutants (in words) [9]: could not prevent the peptide-induced growth defect | effect on growth of Rho mutants compared with WT (in words) [10]: very severe | effect on growth of E134K Rho compared with WT (in words) [11]: less severe effect on the growth of the E134K Rho than its WT counterpart | reduction of rate of ATP hydrolysis ([12]; WT Rho): ~5.5 fold | λ (average rate of ATP hydrolysis) ([12]; WT Rho + peptide, λTR1 RNA, exponential decay fit, two to three measurements): 0.009 min⁻¹ | λ (average rate of ATP hydrolysis) [13]: 0.0155 min⁻¹ | inhibition of RNA release by pathogenic Rho proteins (in words) [14]: could inhibit the termination process by all the different Rho proteins | growth phenotype upon streaking (in words) [15]: very sick phenotype | transformants obtained (in words) [15]: fewer colonies than those obtained from the transformation with the empty vector | growth phenotype upon streaking (in words) [16]: very sick phenotype | upregulation of tested genes (in words) [17]: higher level of upregulation of these genes than that when its CTDΔ8 derivative was expressed | secondary structure by CD (in words) [18]: predominantly α-helical | interaction with isolated Rho-NTD monomer (in words) [19]: unable to interact with an isolated Rho–NTD monomer | solubility at mildly acidic pH (in words) [20]: properly soluble at a mildly acidic pH

MHHHHHHTPAQGMIFSVKVRTGITSVSVKAWLFWRMREDFQPDTD [peptide 16]
effect in transcription termination assay with Rho (in words) ([3]; data not shown): much less | inhibition of Rho-induced RNA release from stalled EC (in words) [4]: significantly inhibited | inhibition of Rho-induced RNA release from stalled EC (in words) ([4]; listed as Peptide 16): could efficiently inhibit the RNA release of Rho only when stalled EC was used | Frac. of RNA released (%) ([4]; peptide 25, Rho 50 nM): 38 ± 2% | Frac. of RNA released (%) ([4]; peptide 50, Rho 50 nM): 22 ± 0.8% | Frac. of RNA released (%) ([4]; peptide 100, Rho 50 nM): 13 ± 2% | Kd [5, 22]: 214 ± 113 nM | binding affinity and stoichiometry (in words) ([5]; compared with peptide 33, ITC): binds with much weaker affinity and with significantly reduced stoichiometry | growth defect upon expression (in words) [6]: severe growth defects | in vivo antitermination / Rho inhibitory properties (in words) [7]: strong in vivo antitermination of Rho-dependent termination | colour of colonies, galEP3 reporter (in words) [8]: appearance of red colonies | peptide-induced growth defect with Rho mutants (in words) [9]: could not prevent the peptide-induced growth defect | secondary structure by CD (in words) [18]: predominantly α-helical | solubility at mildly acidic pH (in words) [20]: properly soluble at a mildly acidic pH

B1: His-tagged WT Psu (polarity suppression protein, bacteriophage P4 capsid protein) (natural protein)
chain: MESTALQQAFDTCQNNKAAWLQRKNELAAAEQEYLRLLSGEGRNVSRLDELRNIIEVRKWQVNQAAGRYIRSHEAVQHISIRDRLNDFMQQHGTALAAALAPELMGYSELTAIARNCAIQRATDALREALLSWLAKGEKINYSAQDSDILTTIGFRPDVASVDDSREKFTPAQNMIFSRKSAQLASRQSV
binding result [21]: binds

B2: YaeO: PBS-binding Rho antagonist (protein, UniProt P0AFW8 1-84, looked up)
Protein rof: MNDTYQPINCDDYDNLELACQHHLMLTLELKDGEKLQAKASDLVSRKNVEYLVVEAAGETRELRLDKITSFSHPEIGTVVVSES
Rho antagonism (in words) [1]: PBS-binding Rho antagonists

Source: PMC8141534 (The Journal of Biological Chemistry, 2021)
